Target: T1, purified human HDAC6 (Homo sapiens, UniProt Q9UBN7)
T1 construct: purchased BPS Bioscience 5006
T1 sequence (Q9UBN7 1-1215): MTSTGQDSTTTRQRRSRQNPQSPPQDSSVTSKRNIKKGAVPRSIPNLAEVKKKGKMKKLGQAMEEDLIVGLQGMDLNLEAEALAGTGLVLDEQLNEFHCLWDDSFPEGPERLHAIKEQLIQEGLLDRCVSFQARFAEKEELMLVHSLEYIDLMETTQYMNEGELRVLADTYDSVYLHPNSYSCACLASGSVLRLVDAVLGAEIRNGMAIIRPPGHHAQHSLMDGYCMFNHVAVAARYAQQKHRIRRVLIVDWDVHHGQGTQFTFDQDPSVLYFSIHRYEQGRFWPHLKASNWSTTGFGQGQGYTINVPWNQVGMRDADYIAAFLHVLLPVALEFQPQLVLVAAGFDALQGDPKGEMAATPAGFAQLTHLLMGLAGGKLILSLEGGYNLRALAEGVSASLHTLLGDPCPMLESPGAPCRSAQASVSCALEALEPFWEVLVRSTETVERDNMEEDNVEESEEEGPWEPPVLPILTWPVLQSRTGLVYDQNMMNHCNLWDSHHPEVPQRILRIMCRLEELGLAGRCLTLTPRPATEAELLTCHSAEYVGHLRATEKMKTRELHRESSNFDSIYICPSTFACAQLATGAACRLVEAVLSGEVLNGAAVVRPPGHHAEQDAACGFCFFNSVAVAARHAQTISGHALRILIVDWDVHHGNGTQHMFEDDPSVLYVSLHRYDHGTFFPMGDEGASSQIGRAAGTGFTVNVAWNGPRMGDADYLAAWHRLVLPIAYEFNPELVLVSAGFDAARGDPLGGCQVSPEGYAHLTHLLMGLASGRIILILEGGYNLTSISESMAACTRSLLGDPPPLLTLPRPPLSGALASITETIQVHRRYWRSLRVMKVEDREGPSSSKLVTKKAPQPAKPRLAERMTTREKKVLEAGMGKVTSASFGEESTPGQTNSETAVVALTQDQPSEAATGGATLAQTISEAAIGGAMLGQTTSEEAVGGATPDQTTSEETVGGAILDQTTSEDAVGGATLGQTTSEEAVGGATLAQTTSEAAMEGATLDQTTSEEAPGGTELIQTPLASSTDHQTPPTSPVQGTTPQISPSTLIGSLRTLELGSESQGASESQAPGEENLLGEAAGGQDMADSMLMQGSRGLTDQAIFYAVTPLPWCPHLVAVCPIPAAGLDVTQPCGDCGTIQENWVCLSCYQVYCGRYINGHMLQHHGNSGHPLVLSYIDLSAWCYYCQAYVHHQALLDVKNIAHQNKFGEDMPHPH
Experiment: HDAC6 Enzyme Assay
Type: biochemical
Conditions: substrate Ac-Arg-Gly-Lys(Ac)-AMC peptide, 1 hour at 30° C.
Method: To measure the inhibition of HDAC6 activity, purified human HDAC6 (BPS Bioscience; Cat. No. 5006) is incubated with substrate Ac-Arg-Gly-Lys(Ac)-AMC peptide (Bachem Biosciences; Cat. No. I-1925) for 1 hour at 30° C. in the presence of test compounds or vehicle DMSO control. The reaction is stopped with the HDAC inhibitor trichostatin A (Sigma; Cat. No. T8552) and the amount of Arg-Gly-Lys-AMC generated is quantitated by digestion with trypsin (Sigma; Cat. No. T1426) and subsequent measurement of the amount of AMC released using a fluorescent plate reader (Pherastar; BMG Technologies) set at Ex 340 nm and Em 460 nm. Concentration response curves are generated by calculating the fluorescence increase in test compound-treated samples relative to DMSO-treated controls, and enzyme inhibition (IC50) values are determined from those curves.

IC50, > 500 nM:
C[C@@H](NC(=O)C(C)(C)C)c1ncc(C(=O)NO)s1 [Compound I-166, 2-{(1R)-1-[(2,2-dimethylpropanoyl)amino]ethyl}-N-hydroxy-1,3-thiazole-5-carboxamide]
Cc1nc(-c2ccccn2)sc1C(=O)N[C@H](C)c1cc(C(=O)NO)cn1C [Compound I-156, N-((1R)-1-{4-[(hydroxyamino)carbonyl]-1-methyl-1H-pyrrol-2-yl}ethyl)-4-methyl-2-pyridin-2-yl-1,3-thiazole-5-carboxamide]
C[C@@H](NC(=O)C12CC3CC(CC(C3)C1)C2)c1ncc(C(=O)NO)s1 [Compound I-172, 2-((1R)-1-{[1-adamantylcarbonyl]amino}ethyl)-N-hydroxy-1,3-thiazole-5-carboxamide]
C[C@H](NC(=O)C12CC3CC(CC(C3)C1)C2)c1ncc(C(=O)NO)s1 [Compound I-179, 2-((1S)-1-{[1-adamantylcarbonyl]amino}ethyl)-N-hydroxy-1,3-thiazole-5-carboxamide]
C[C@@H](NC(=O)c1ccc(-c2ccccc2)cc1)c1cc(C(=O)NO)on1 [Compound I-158, 3-{(1R)-1-[(biphenyl-4-ylcarbonyl)amino]ethyl}-N-hydroxyisoxazole-5-carboxamide]
C[C@@H](NC(=O)C(C)(C)C)c1cc(C(=O)NO)on1 [Compound I-182, 3-{(1R)-1-[(2,2-dimethylpropanoyl)amino]ethyl}-N-hydroxyisoxazole-5-carboxamide]
C[C@H](NC(=O)C(C)(C)C)c1ncc(C(=O)NO)s1 [Compound I-183, 2-{(1S)-1-[(2,2-dimethylpropanoyl)amino]ethyl}-N-hydroxy-1,3-thiazole-5-carboxamide]
C[C@@H](NC(=O)C1(C)CCCCC1)c1ncc(C(=O)NO)s1 [Compound I-162, N-hydroxy-2-((1R)-1-{[(1-methylcyclohexyl)carbonyl]amino}ethyl)-1,3-thiazole-5-carboxamide]

IC50, < 100 nM:
CC(NC(=O)NCc1ccccc1)c1ccc(C(=O)NO)s1 (centres unmarked) [Compound I-18, 5-(1-{[(benzylamino)carbonyl]amino}ethyl)-N-hydroxythiophene-2-carboxamide]
CC(NC(=O)Nc1ccc(C(F)(F)F)cc1)c1ccc(C(=O)NO)s1 (centres unmarked) [Compound I-45, N-hydroxy-5-{1-[({[4-(trifluoromethyl)phenyl]amino}carbonyl)amino]ethyl}thiophene-2-carboxamide]
Cc1nc(-c2ccccn2)sc1C(=O)N[C@@H](C)c1ncc(C(=O)NO)s1 [Compound I-168, N-((1S)-1-{5-[(hydroxyamino)carbonyl]-1,3-thiazol-2-yl}ethyl)-4-methyl-2-pyridin-2-yl-1,3-thiazole-5-carboxamide]
C[C@H](NC(=O)c1cc2ccccc2o1)c1ncc(C(=O)NO)s1 [Compound I-159, 2-{(1S)-1-[(1-benzofuran-2-ylcarbonyl)amino]ethyl}-N-hydroxy-1,3-thiazole-5-carboxamide]
CC(NC(=O)Nc1ccc(Oc2ccccc2)cc1)c1ccc(C(=O)NO)s1 (centres unmarked) [Compound I-14, N-hydroxy-5-[1-({[(4-phenoxyphenyl)amino]carbonyl}amino)ethyl]thiophene-2-carboxamide]
C[C@H](NC(=O)c1ccc(-c2ccccc2)cc1)c1ncc(C(=O)NO)s1 [Compound I-161, 2-{(1S)-1-[(biphenyl-4-ylcarbonyl)amino]ethyl}-N-hydroxy-1,3-thiazole-5-carboxamide]
Cc1ccc(NC(=O)NC(C)c2ccc(C(=O)NO)s2)c(C)c1 (centres unmarked) [Compound I-13, 5-[1-({[(2,4-dimethylphenyl)amino]carbonyl}amino)ethyl]-N-hydroxythiophene-2-carboxamide]
C[C@H](NC(=O)c1cc2ccccc2s1)c1ncc(C(=O)NO)s1 [Compound I-180, 2-{(1S)-1-[(1-benzothien-2-ylcarbonyl)amino]ethyl}-N-hydroxy-1,3-thiazole-5-carboxamide]
C[C@@H](NC(=O)c1cc2ccccc2n1C)c1ccc(C(=O)NO)s1 [Compound I-5, N-((1R)-1-{5-[(hydroxyamino)carbonyl]-2-thienyl}ethyl)-1-methyl-1H-indole-2-carboxamide]
CC(NC(=O)Nc1ccc(Cl)c(C(F)(F)F)c1)c1ccc(C(=O)NO)s1 (centres unmarked) [Compound I-10, 5-{1-[({[4-chloro-3-(trifluoromethyl)phenyl]amino}carbonyl)amino]ethyl}-N-hydroxythiophene-2-carboxamide]
CC(NC(=O)Nc1cc(C(F)(F)F)ccc1F)c1ccc(C(=O)NO)s1 (centres unmarked) [Compound I-7, 5-{1-[({[2-fluoro-5-(trifluoromethyl)phenyl]amino}carbonyl)amino]ethyl}-N-hydroxythiophene-2-carboxamide]
CC(NC(=O)Nc1ccc(OC(F)(F)F)cc1)c1ccc(C(=O)NO)s1 (centres unmarked) [Compound I-22, N-hydroxy-5-{1-[({[4-(trifluoromethoxy)phenyl]amino}carbonyl)amino]ethyl}thiophene-2-carboxamide]
C[C@@H](NC(=O)c1cc(Cl)c(Cl)n1C)c1ccc(C(=O)NO)s1 [Compound I-17, 4,5-dichloro-N-((1R)-1-{5-[(hydroxyamino)carbonyl]-2-thienyl}ethyl)-1-methyl-1H-pyrrole-2-carboxamide]

IC50, 100 to 500 nM:
CC(NS(=O)(=O)c1cn(C)cn1)c1ccc(C(=O)NO)s1 (centres unmarked) [Compound I-33, N-hydroxy-5-(1-{[(1-methyl-1H-imidazol-4-yl)sulfonyl]amino}ethyl)thiophene-2-carboxamide]
C[C@H](NC(=O)c1ccc(S(C)(=O)=O)cc1)c1ncc(C(=O)NO)s1 [Compound I-177, N-hydroxy-2-((1S)-1-{[4-(methylsulfonyl)benzoyl]amino}ethyl)-1,3-thiazole-5-carboxamide]
Cc1ccccc1S(=O)(=O)NC(C)c1ccc(C(=O)NO)s1 (centres unmarked) [Compound I-35, N-hydroxy-5-(1-{[(2-methylphenyl)sulfonyl]amino}ethyl)thiophene-2-carboxamide]
CC(NC(=O)Nc1ccccc1-c1ccccc1)c1ccc(C(=O)NO)s1 (centres unmarked) [Compound I-27, 5-(1-{[(biphenyl-2-ylamino)carbonyl]amino}ethyl)-N-hydroxythiophene-2-carboxamide]
COc1ccc(C(=O)N[C@@H](C)c2ncc(C(=O)NO)s2)cc1 [Compound I-175, N-hydroxy-2-{(1S)-1-[(4-methoxybenzoyl)amino]ethyl}-1,3-thiazole-5-carboxamide]
Cc1noc(-c2ccccc2)c1NC(=O)NC(C)c1ccc(C(=O)NO)s1 (centres unmarked) [Compound I-41, N-hydroxy-5-[1-({[(3-methyl-5-phenylisoxazol-4-yl)amino]carbonyl}amino)ethyl]thiophene-2-carboxamide]
CC(NC(=O)c1cccn1C)c1ncc(C(=O)NO)s1 (centres unmarked) [Compound I-52, N-hydroxy-2-(1-{[(1-methyl-1H-pyrrol-2-yl)carbonyl]amino}ethyl)-1,3-thiazole-5-carboxamide]
C[C@H](NC(=O)c1cccn1C)c1ncc(C(=O)NO)s1 [Compound I-160, N-hydroxy-2-((1S)-1-{[(1-methyl-1H-pyrrol-2-yl)carbonyl]amino}ethyl)-1,3-thiazole-5-carboxamide]
